Test results: PubChem BioAssay (NCI)
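The compound was tested at five concentrations on cells cultured in 96-well plates, with a 48-hour exposure period. Definition used: TGI = concentration required for complete inhibition of growth.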

Tests used:
Experiment in all cases: NCI tumour cell line growth inhibition, 48 h
RPMI-8226 leukemia = tested on: RPMI-8226 leukemia
UACC-62 melanoma = tested on: UACC-62 melanoma
RXF 393 renal = tested on: RXF 393 renal
CAKI-1 renal = tested on: CAKI-1 renal
OVCAR-4 ovarian = tested on: OVCAR-4 ovarian
A498 renal = tested on: A498 renal
U251 CNS = tested on: U251 CNS
HCT-116 colon = tested on: HCT-116 colon
MDA-MB-231 breast = tested on: MDA-MB-231 breast
HL-60(TB) leukemia = tested on: HL-60(TB) leukemia

Row | SMILES | TGI (RPMI-8226 leukemia) | TGI (UACC-62 melanoma) | TGI (RXF 393 renal) | TGI (CAKI-1 renal) | TGI (OVCAR-4 ovarian) | TGI (A498 renal) | TGI (U251 CNS) | TGI (HCT-116 colon) | TGI (MDA-MB-231 breast) | TGI (HL-60(TB) leukemia)
1 | O=C(C#Cc1ccccc1)Nc1ccccc1CC(c1c[nH]c2ccccc12)c1c[nH]c2ccccc12 | 16.8 µM | 22 µM | 14 µM | > 100 µM |  |  |  |  |  | 
2 | CN(C)CCNC(=O)c1cccc2c(NC(CCCN=C(N)N)C(=O)O)c3ccccc3nc12 (stereo not drawn) | > 100 µM | 60 µM |  |  | 27.7 µM | 61.3 µM | > 100 µM | 67.8 µM | > 100 µM | > 100 µM
3 | C=C1C(=O)OC2C=C(C)CC3C=C(CCC=C(C)CCC12)C(=O)O3 (stereo not drawn) | 155 µM | 113 µM | 82.3 µM | 140 µM | 131 µM | 167 µM | 121 µM | 85.6 µM |  | 73.4 µM
4 | OC[C@@H](O)[C@H](O)[C@H](O)[C@@H](O)C1SCCCS1 | > 100 µM | > 100 µM | > 100 µM | > 100 µM | > 100 µM | > 100 µM | > 100 µM | > 100 µM | > 100 µM | 
5 | Nc1ccc(Oc2ccc(C34CC5CC(C3)CC(c3ccc(Oc6ccc(N)c(O)c6)cc3)(C5)C4)cc2)cc1O | > 100 µM | 6.59 µM | 3.33 µM | 3.57 µM | 5.28 µM | 36.1 µM | 2.72 µM |  | 3 µM | 
6 | O=C(O)Cn1cnc2c(=O)[nH]c(Nc3ccccc3)nc21 | > 100 µM | > 100 µM |  | > 100 µM | > 100 µM | > 100 µM | > 100 µM | > 100 µM | > 100 µM | 
7 | CSCCC(NOC(=O)Cc1ccccc1)P(=O)(O)c1ccccc1 (stereo not drawn) | > 100 µM |  |  | > 100 µM | > 100 µM |  | > 100 µM | > 100 µM | > 100 µM | > 100 µM
8 | O=C1C2=C(c3ccccc31)C(c1ccc([N+](=O)[O-])cc1)NC(=S)N2 (stereo not drawn) | > 100 µM | > 100 µM |  | > 100 µM | > 100 µM | > 100 µM | > 100 µM | > 100 µM |  | > 100 µM
9 | Cc1cc2nc3c(C)c4ccccc4c(C)n3c2cc1C | > 10 µM | > 10 µM | 8.66 µM | > 10 µM | > 10 µM |  | > 10 µM | 3.96 µM | 7.51 µM | 6.33 µM
10 | CC(C)C(N=C1CC2CCC1(C(=O)Nc1ccccc1O)C2(C)C)c1ccccc1 (stereo not drawn) | > 10 µM | > 10 µM |  | > 10 µM | > 10 µM | > 10 µM | > 10 µM | > 10 µM |  | > 10 µM
11 | C#CCn1c(=O)c2cc(OC)c(OC)cc2n(CC#C)c1=O | > 10 µM |  | > 10 µM | > 10 µM | > 10 µM | > 10 µM | > 10 µM | > 10 µM | > 10 µM | 
12 | Nc1nc(Cl)cc(OCC2(CO)CCCCC2)n1 | > 100 µM |  | > 100 µM |  | > 100 µM | > 100 µM | > 100 µM | > 100 µM |  | > 100 µM
